Earlier results in US6403086B1, “Administering extracts of morinda citrifolia, red wine, prune, blueberry, pomegranate, apple and an enzyme mixture” (priority 2001, dated 2002).

Details: supplementation with 30 IU to 100 IU

vitamin E
lower risk of heart disease: 41%
